Measurements reported in patent US20230043985A1, “ONCE DAILY CANCER TREATMENT REGIMEN WITH A PRMT5 INHIBITOR” (Pfizer Inc., priority 2019, published 2023).

Tests used:
[1] = Pre-clinical prediction of human in vivo plasma clearance from human liver microsomes; type: in vitro ADME; conditions: used as the predicted CL
Protocol: (§1) Briefly, in vivo plasma clearance (CL) in humans was predicted to be ˜3 and ˜0.6 mL/min/kg from human liver microsomes and hepatocytes, respectively. The conservative value of ˜3 mL/min/kg from human liver microsomes was used as the predicted CL. […] A half-life (t1/2) is predicted to be ˜6 h calculated by the equation: t1/2=0.693*Vss/CL.

[2] = Pre-clinical prediction of human in vivo plasma clearance from hepatocytes; type: in vitro ADME
Protocol: as §1

[3] = Pre-clinical projection of human Vss, half-life and peak to trough ratio (unbound Vss scaling from rats and dogs; t1/2=0.693*Vss/CL); conditions: for predicted peak to trough ratio in humans: based on ~6-hour projected half-life
Protocol: as §1
Moreover, based on the ˜6-hour projected half-life for Compound 1 the likely peak to trough ratio in humans was predicted to be lower following twice daily (BID) dosing (˜4) compared to once daily (QD) dosing (˜8 or more). Lower peak to trough ratios are generally more desirable because they may help to minimize potential Cmax-related adverse effects (if any) while maintaining the therapeutic effects.
Half-life, for instance the half-life of Compound 1, refers to the time it takes for the plasma concentration of Compound 1 to decrease by 50% as calculated by the equation: 0.693*Vss/CL where Vss is the steady-state volume of distribution and CL is plasma clearance.

[4] = Phase 1 clinical PK of Compound 1 in patients (plasma, LC-MS/MS), Study NCT03854227; type: in vivo, human
Protocol: Peak to trough ratio refers to the ratio of the maximum concentration (Cmax) to minimum concentration (Cmin) of Compound 1 observed. Relevant to the present invention is the peak to trough ration during the dosing interval at “steady state” (day 15). Blood samples for the characterization of PK profiles were collected at pre- and post-dose on Day 1 (single dose) and Day 15 (steady state), and were analyzed for Compound 1 using a validated liquid chromatography coupled with tandem mass spectrometry (LC-MS/MS) assay. The lower limit of quantitation of the assay was 0.250 ng/mL. The representative day 1 median PK profile of Compound 1 dosed at 2 mg BID is provided at FIG. 1. The representative steady state (day 15) median PK profile of Compound 1 dosed at 2 mg BID is provided at FIG. 2. Table 1 (below) depicts representative mean maximum (Cmax) and minimum (Cmin) daily concentrations of Compound 1 at “steady state” (day 15) dosed BID at 2 mg. A population pharmacokinetic (PK) model was generated based on the preliminary PK data from 6 patients received Compound 1 orally at doses up to 2 mg BID at steady state. It was observed that actual mean peak to trough ratio at steady state (here, 15 days of dosing) of Compound 1 in the NCT03854227 clinical trial was ˜2 for BID dosing, substantially lower than that previously predicted based on pre-clinical data (˜4 for BID). Furthermore, based on this population PK model, the steady state PK profiles following QD vs BID dosing (using a 16 mg total daily dose as an example) were compared using the individual PK parameters from each of these 6 patients. […] Compound 1 was provided to patients in three cohorts as tablets ((1) 1 mg tablets (for patient dosed with 4 mg QD); and 2) 1 mg and 5 mg tablets (for patients dosed with 6 mg QD and 8 mg QD)) supplied in separate labeled bottles for oral administration. Because patients were receiving 4 mg QD, 6 mg QD, and 8 mg QD, respectively, each of them were instructed to swallow whole (i.e., without crushing or chewing) 1) four 1 mg tablets (for the 4 mg QD cohort (N=3)); 2) one 5 mg tablets and one 1 mg tablet (for the 6 mg cohort (N=6)); and 3) one 5 mg tablet and three 1 mg tablets (for the 8 mg cohort (N=2)) at the same time each morning with at least 8 oz (240 mL) of water on an empty stomach. No food or liquids other than water were consumed for 2 hours before and 1 hour following each dose administration. Patients in these cohorts took Compound 1 orally QD as described above for four cycles (a cycle is 28 days). Weekly visits to the clinic were made by the patient to evaluate the anti-cancer activity and side effects of Compound 1. FIG. 5, FIG. 6, and FIG. 7 show the Day 15 steady state median concentration-time profiles for 4 mg QD, 6 mg QD, and 8 mg QD, respectively. […]

PRMT5 = target: T1, PRMT5 (Homo sapiens, UniProt O14744); test: Blood pharmacodynamic biomarker plasma SDMA inhibition (LC-MS/MS) in patients; type: in vivo
T1 construct: endogenous in cells; host or cells: tissues of the dosed subjects (in vivo); SDMA measured in plasma by LC-MS/MS
Protocol: The plasma SDMA (Symmetrical Dimethylarginine) level was used as a pharmacodynamic biomarker (PD) to monitor the inhibition effect of Compound 1. SDMA was chosen for the blood PD biomarker because PRMT5 catalyzes the formation of SDMA in a number of nuclear and cytoplasmic proteins, and PRMT5 inhibition would result in a decrease of SDMA. The quantitative determination of SDMA was performed by using a liquid chromatography mass spectrometry (LC-MS/MS) assay which is an exceedingly sensitive and specific analytical technique that can precisely determine the identities and concentration of compounds such as SDMA within a sample. The assay had been validated from 1-500 ng/ml in plasma. […] The plasma SDMA inhibition were around 60% for the first two cohorts (N=1 in each cohort), including 0.5 mg QD and 0.5 mg BID. The plasma SDMA inhibition was around 80% from cohort 3 to cohort 9, including 1 mg BID (N=2), 2 mg BID (N=3), 4 mg BID (N=3), 6 mg BID (N=4), 4 mg QD (N=5), 6 mg QD (N=6), and 8 mg QD (N=3).

[5] = Tolerability of BID dosing scheme in Phase 1 clinical trial; type: in vivo, human; conditions: BID (twice daily) dosing scheme, patients
Excerpt: These calculations, and in particular the half-life projection, were incorporated into the design of a Phase I clinical trial of Compound 1 [Study NCT03854227; A Phase 1 Study to Evaluate the Safety, Pharmacokinetics, and Pharmacodynamics of Escalating Doses Of [Compound 1] (PRMT Inhibitor) in Participants with Advanced or Metastatic Non-Small Cell Lung Cancer, Head And Neck Squamous Cell Carcinoma, Esophageal Cancer, Endometrial Cancer, Cervical Cancer And Bladder Cancer; first posted 26 Feb. 2019] which included BID (twice daily) dosing of 0.5 mg, 1 mg, 2 mg, 4 mg, 8 mg, 16 mg, 30 mg and 60 mg Compound 1. BID (twice daily) dosing was implemented for all doses thought to potentially be therapeutic in order to limit (i.e., lessen) the projected peak to trough ratio of Compound 1 in view of the predicted ˜6-hour half-life of Compound 1.
In this regard, it is noted that the primary indications for Compound 1 are various cancer types which are often accompanied by patients' physical and emotional difficulties in executing self-care. Moreover, many cancer indications become more prevalent with advancing age and is often accompanied by decline in memory. […]
Part 1A (dose escalation) has approximately 9 cohorts and enrolls approximately 40 participants. […] Dose limiting toxicities (DLT) were assessed at the end of Cycle 1 (28 days) to inform dose escalation and determine the MTD. […]

T1 sequence (O14744 whole entry): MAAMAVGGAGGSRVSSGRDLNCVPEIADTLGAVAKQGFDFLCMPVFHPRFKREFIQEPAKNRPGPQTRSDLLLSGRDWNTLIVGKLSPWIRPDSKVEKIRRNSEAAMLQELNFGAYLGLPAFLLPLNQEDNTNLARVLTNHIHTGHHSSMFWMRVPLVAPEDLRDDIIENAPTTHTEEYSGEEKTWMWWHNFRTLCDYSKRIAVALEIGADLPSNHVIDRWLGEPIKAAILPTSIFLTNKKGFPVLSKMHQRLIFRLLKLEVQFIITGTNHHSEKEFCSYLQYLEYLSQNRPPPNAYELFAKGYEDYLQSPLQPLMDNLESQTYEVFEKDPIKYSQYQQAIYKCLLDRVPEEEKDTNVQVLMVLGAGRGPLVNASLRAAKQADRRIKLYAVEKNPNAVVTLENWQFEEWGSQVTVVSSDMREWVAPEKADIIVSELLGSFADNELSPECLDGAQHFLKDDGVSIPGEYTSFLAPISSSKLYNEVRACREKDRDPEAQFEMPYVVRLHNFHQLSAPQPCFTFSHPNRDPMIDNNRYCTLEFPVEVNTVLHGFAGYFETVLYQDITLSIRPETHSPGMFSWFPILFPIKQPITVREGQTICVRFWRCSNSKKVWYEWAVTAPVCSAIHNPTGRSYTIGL
T1 sequence (Q9BQA1 whole entry partner): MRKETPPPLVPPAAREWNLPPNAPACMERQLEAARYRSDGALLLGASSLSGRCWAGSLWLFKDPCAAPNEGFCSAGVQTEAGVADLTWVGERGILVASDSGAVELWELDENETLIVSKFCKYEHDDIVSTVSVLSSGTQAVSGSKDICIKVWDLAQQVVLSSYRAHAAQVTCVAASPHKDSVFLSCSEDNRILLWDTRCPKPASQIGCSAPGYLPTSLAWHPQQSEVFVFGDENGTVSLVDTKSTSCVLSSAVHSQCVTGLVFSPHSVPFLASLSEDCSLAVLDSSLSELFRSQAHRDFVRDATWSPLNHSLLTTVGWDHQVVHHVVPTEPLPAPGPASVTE

With Cc1ncnc2c1ccn2[C@@H]1C[C@H](Oc2cc(C(F)F)c(F)c3c2CNCC3)[C@@H](O)[C@H]1O [Compound 1, (1S,2S,3S,5R)-3-((6-(difluoromethyl)-5-fluoro-1,2,3,4-tetrahydroisoquinolin-8-yl)oxy)-5-(4-methyl-7H-pyrrolo[2,3-d]pyrimidin-7-yl)cyclopentane-1,2-diol] the “predicted in vivo plasma clearance (CL) in humans” value [1] was roughly 3 mL/min/kg, the “predicted in vivo plasma clearance (CL) in humans” value [2] was roughly 0.6 mL/min/kg and the “predicted half-life (t1/2) in humans” value ([3]; calculated t1/2=0.693*Vss/CL) was roughly 6 h. For the same compound, the “predicted steady-state volume of distribution (Vss) in humans” value ([3]; mean unbound Vss scaling from rats and dogs, factoring in human plasma protein binding) was 1.6 L/kg, the “predicted peak to trough ratio in humans” value ([3]; once daily (QD) dosing) was no less than 8 and the “predicted peak to trough ratio in humans” value ([3]; twice daily (BID) dosing) was roughly 4. The “actual mean peak to trough ratio at steady state” value ([4]; BID dosing, doses up to 2 mg BID, 15 days of dosing, patients) was roughly 2, the “peak-to-trough ratio at steady state (median)” value ([4]; QD oral dosing (4 mg, 6 mg, 8 mg QD cohorts), Day 15, patients) was 3.1 and the Cmax at 15 day ([4]; human, plasma, 2 mg BID oral, steady state (day 15), patients, N=2, read-out: Cmax (mean maximum daily concentration)) was 26.9 ng/mL. The concentration at 15 day ([4]; human, plasma, 2 mg BID oral, steady state (day 15), patients, N=2, read-out: Cmin (mean minimum daily concentration)) was 14.6 ng/mL, the “plasma SDMA inhibition” value (PRMT5; cohort 3 to cohort 9: 1, 2, 4, 6 mg BID and 4, 6, 8 mg QD) was “around 80%” and the inhibition at 0.5 mg (PRMT5; human, first two cohorts: 0.5 mg QD and 0.5 mg BID (N=1 in each)) was roughly 60%. For the same compound, the “SDMA reduction over time” value (PRMT5; plasma, different dose levels, patients (FIG. 8)) was 60-80% and the tolerability [5] was “well tolerated”.
